Measurements as given in article PMC6536313 (Bioorganic & medicinal chemistry, 2019).

Legend:
σ2 receptor (σ2R) = σ2 receptor (σ2R) (Homo sapiens, UniProt Q5BJF2); assay: Sigma-2 receptor radioligand binding; conditions: for σ2R pKi ± SEM: Mean ± SEM
σ1 receptor (σ1R) = σ1 receptor (σ1R) (Homo sapiens, UniProt Q99720); assay: Sigma-1 receptor radioligand binding
[1] = on removal of both chloro and fluoro substituents (ether analogs 13-15)

σ2 receptor (σ2R), sequence (Q5BJF2 whole entry, species assumed): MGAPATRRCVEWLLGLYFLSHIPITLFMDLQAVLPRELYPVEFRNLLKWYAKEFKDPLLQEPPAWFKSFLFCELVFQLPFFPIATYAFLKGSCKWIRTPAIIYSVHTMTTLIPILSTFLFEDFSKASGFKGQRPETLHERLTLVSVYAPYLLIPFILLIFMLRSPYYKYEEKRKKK
σ1 receptor (σ1R), sequence (Q99720 whole entry, species assumed): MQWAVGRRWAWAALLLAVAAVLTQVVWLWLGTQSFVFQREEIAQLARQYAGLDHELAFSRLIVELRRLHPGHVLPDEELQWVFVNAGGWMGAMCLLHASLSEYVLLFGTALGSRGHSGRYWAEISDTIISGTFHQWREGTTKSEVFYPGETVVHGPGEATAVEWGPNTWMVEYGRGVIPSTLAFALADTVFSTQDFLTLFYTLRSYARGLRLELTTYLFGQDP

O=C(CCCN1CCCN(c2ccccn2)CC1)c1ccc(F)cc1 [Compound 3, 1-(4-fluorophenyl)-4-(4-(pyridin-2-yl)-1,4-diazepan-1-yl)butan-1-one]
σ2R pKi ± SEM (σ2 receptor (σ2R)): 7.49 ± 0.09

Fc1ccc(CCCCN2CCN(c3ccc(Cl)cn3)CC2)cc1 [Compound 10, 1-(5-chloropyridin-2-yl)-4-(4-(4-fluorophenyl)butyl)piperazine]
σ2R pKi ± SEM (σ2 receptor (σ2R)): 7.37 ± 0.05

[O-][S+](CCCN1CCN(c2ccc(Cl)cc2)CC1)c1ccc(F)cc1 (centres unmarked) [Compound 12]
fold reduction/loss of binding affinity at σ1 receptor (σ1 receptor (σ1R); relative to compound 8): greater than 45 fold
fold reduction/loss of binding affinity at σ2 receptor (σ2 receptor (σ2R); relative to compound 8): > 71 fold

Fc1ccc(SCCCN2CCCN(c3ccc(Cl)cn3)CC2)cc1 [Compound 7, 1-(5-chloropyridin-2-yl)-4-(3-((4-fluorophenyl)thio)propyl)-1,4-diazepane]
σ2R pKi ± SEM (σ2 receptor (σ2R)): 8.65 ± 0.05

c1ccc(OCCCN2CCN(c3ccccc3)CC2)cc1 [Compound 15]
fold decrease in binding affinity at σ1 receptor (σ1 receptor (σ1R); [1]): 2–5 fold
fold decrease in binding affinity at σ2 receptor (σ2 receptor (σ2R); [1]): 2–5 fold

Fc1ccc(CCCCN2CCCN(c3ccc(Cl)cc3)CC2)cc1 [Compound 5]
σ2R pKi ± SEM (σ2 receptor (σ2R)): 8.07 ± 0.06

OC1(c2ccc(Cl)cc2)CC2CCC(C1)N2CCCCc1ccc(F)cc1 (centres unmarked) [Compound 17]
fold lower affinity for σ1 receptor (σ1 receptor (σ1R); relative to compound 5): 6 fold
fold lower affinity for σ2 receptor (σ2 receptor (σ2R); relative to compound 5): 3 fold

Clc1ccc(N2CCN(CCCOc3ccccc3)CC2)cc1 [Compound 13]
σ2R pKi ± SEM (σ2 receptor (σ2R)): 7.48 ± 0.09
